The text below walks through data of US12441768B2, “Compositions and methods for treating endometriosis” (EndoMet Biosciences, Inc., priority 2018, dated 2025).

The test system of data set [1] is colon cancer cell line (SW480). It is filed as cell-based. The settings on record: for Cell growth / viability: SW480, peptide added daily, 7 days. How it is done:
Peptides inhibiting β-catenin cause decreased cell viability in a colon cancer cell line (SW480) and endometriosis lesions excised from a disease animal model. Peptides from libraries described herein are characterized in their effect on cell viability, as measured using a luminescent cell viability assay (Cell Titer-Glo®, Promega, Madison, WI) and expressed as IC50 in Table 5. Peptide inhibitors were tested for their ability to inhibit cellular proliferation across 2 different β-catenin expressing pathogenic cell lines: a colon cancer cell line (SW480) and/or mouse EMS lesion cells derived from mouse model of disease. Both cells lines are naturally known to express high levels of β-catenin. Cell lines were incubated with varying concentrations of peptide concentration and assessed for viability after day 5 and 7 days. The CellTiter-Glo® Luminescent Cell Viability Assay (Promega) is used to detect viable cells. IC50 values are graphed and calculated using Prism software (GraphPad) based on the cell viability readouts. IC50 is used to assess inhibition of cell proliferation by peptide concentration and is used to calculate the inhibitory effect of each peptide across each line. The results are used to assess the therapeutic potency of the peptides. In the SW480 cell line, peptide inhibitors from Family 1 (SEQ ID NO:264) and Family 2 (SEQ ID NO:396) were added daily to the cell growth medium. After 7 days, cell viability was assessed with the Cell-Titer Glo kit (Promega, Madison, WI). […] IC50 was calculated for peptides based on the concentration at which 50% viability was observed (Table 5).

Data set [2] concerns the target T1, β-catenin (Homo sapiens, UniProt P35222).
T1 sequence (P35222 1-781): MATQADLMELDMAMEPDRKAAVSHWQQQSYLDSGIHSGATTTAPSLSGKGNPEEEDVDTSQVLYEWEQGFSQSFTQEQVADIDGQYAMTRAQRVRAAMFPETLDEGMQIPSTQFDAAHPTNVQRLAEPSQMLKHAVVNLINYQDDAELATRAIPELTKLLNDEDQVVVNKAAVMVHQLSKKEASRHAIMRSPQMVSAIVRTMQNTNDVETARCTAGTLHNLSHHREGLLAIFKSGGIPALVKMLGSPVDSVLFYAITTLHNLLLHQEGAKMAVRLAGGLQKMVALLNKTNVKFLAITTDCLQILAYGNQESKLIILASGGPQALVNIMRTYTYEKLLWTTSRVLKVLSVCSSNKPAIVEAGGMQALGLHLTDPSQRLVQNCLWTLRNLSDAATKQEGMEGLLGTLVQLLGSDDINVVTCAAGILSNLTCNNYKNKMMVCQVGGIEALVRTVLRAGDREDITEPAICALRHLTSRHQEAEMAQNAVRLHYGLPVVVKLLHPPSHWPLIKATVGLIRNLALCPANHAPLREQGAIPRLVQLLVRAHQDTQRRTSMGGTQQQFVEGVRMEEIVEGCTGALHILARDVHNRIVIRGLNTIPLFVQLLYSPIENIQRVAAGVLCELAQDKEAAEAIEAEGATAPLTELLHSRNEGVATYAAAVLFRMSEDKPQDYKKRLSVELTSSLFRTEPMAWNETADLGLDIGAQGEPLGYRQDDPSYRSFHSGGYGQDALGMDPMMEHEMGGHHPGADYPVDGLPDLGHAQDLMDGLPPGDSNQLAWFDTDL
Briefly: KD50 measurement using competitive fluorescence polarization (FP) with labelled TCF4. The data set is classed as binding. The settings on record: fluorescence polarization, β-catenin; for Kd: read-out: β-Cat FP KD. Put shortly: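 Tracer: labelled TCF4, 5 nM; protein 100 nM; RT incubation. Competitor dilution series 10 nM–30 uM. FP read ex 470 / em 520 nm. n = 3.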
(In fluorescence polarisation assays a small probe gives low polarisation when free and higher when bound to something large.)

Data set [3] addresses Wnt-responsive promoter (TCF/LEF). Briefly: Wnt-dependent luciferase reporter assay. It is filed as cell-based, murine. An outline of the steps: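 Murine 3T3 fibroblasts carrying a TCF/LEF-driven luciferase reporter, stimulated with Wnt3a in the presence of increasing peptide concentrations or vehicle. Luminescence inhibition gave EC50 values in uM.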
(In general: In a reporter assay the amount or activity of a reporter protein is the signal.)

Data set [4] in a line: in vitro. The settings on record: % Viability non-Wnt responsive cells.

By IC50 is commonly meant the concentration that inhibits the measured activity by half. By Kd is commonly meant the free concentration of one partner at which half of the binding sites on the other are occupied at equilibrium, for simple one-to-one binding. A word on the EC50: it is the midpoint of the concentration-response curve. The viability is a read-out of living cells in per cent, often relative to untreated cells. Higher therefore signals better survival.

Where a SMILES comes first, the peptide text is derived from it. [ ]: non-standard residue; d: D form. The star is where a group is joined. ξ: configuration not given here. NMeW = CN[C@@H](Cc1c[nH]c2ccccc12)C(=O)O; Stearoyl = CCCCCCCCCCCCCCCCCC(=O)*; ξIle = CC[C@H](C)C(N)C(=O)O; ξαMeV = CC(C)C(C)(N)C(=O)O; ξαMeS = CC(N)(CO)C(=O)O; Piv = CC(C)(C)C(=O)*; GABA = NCCCC(=O)O; βAla = NCCC(=O)O

Consider `CCCCCCCCCCCCCCCC(=O)N[C@@H](Cc1c[nH]c2ccccc12)C(=O)N(C)[C@@H](Cc1c[nH]c2ccccc12)C(=O)N[C@@H](CCC(=O)O)C(=O)NC(C)(CO)C(=O)N[C@H](C(=O)N[C@@H](CC(C)C)C(=O)N[C@@H](CC(=O)O)C(=O)N[C@@H](CCC(=O)O)C(=O)N[C@@H](Cc1c[nH]cn1)C(=O)NC(C)(C(=O)N[C@@H](CCC(N)=O)C(=O)N[C@@H](CCCNC(=N)N)C(=O)N[C@H](C(=O)N[C@@H](Cc1c[nH]c2ccccc12)C(=O)NCC(=O)O)C(C)C)C(C)C)[C@@H](C)CC` (single isomer, unassigned) [SEQ ID NO: 396, Palmitoyl-W-NmeW-E-aMeS-ILDEH-aMeV-QRVWG-COOH], for which, in data set [1], the “Cell growth / viability” value is “inhibited cell growth”.
Same read-out and setting: to `CC[C@H](C)[C@H](NC(=O)[C@H](CC(C)C)NC(=O)[C@@H](NC(=O)[C@H](Cc1c[nH]c2ccccc12)NC(=O)[C@H](CCSC)N(C)C)[C@@H](C)CC)C(=O)N[C@@H](CO)C(=O)N[C@@H](Cc1ccccc1)C(=O)N[C@@H](Cc1c[nH]c2ccccc12)C(=O)NCC(=O)O` [SEQ ID NO: 264] (HELM PEPTIDE1{[CSCC[C@@H](C(=O)[*:2])N(C)C].W.I.L.I.S.F.W.G}$$$$V2.0) belongs “inhibited cell growth”.
`CCCCCCCCCCCCCC(=O)NCC(=O)N[C@@H](Cc1c[nH]c2ccccc12)C(=O)N(C)[C@@H](Cc1c[nH]c2ccccc12)C(=O)N[C@@H](CCC(=O)O)C(=O)N[C@@H](CO)C(=O)N[C@H](C(=O)N[C@@H](CC(C)C)C(=O)N[C@@H](CC(=O)O)C(=O)N[C@@H](CCC(=O)O)C(=O)N[C@@H](Cc1c[nH]cn1)C(=O)N[C@H](C(=O)N[C@@H](CCC(N)=O)C(=O)N[C@@H](CCCNC(=N)N)C(=O)N[C@H](C(=O)N[C@@H](Cc1c[nH]c2ccccc12)C(=O)NCC(=O)O)C(C)C)C(C)C)[C@@H](C)CC` [compound 1] (HELM PEPTIDE1{[CCCCCCCCCCCCCC(=O)[*:2]].G.W.[meW].E.S.I.L.D.E.H.V.Q.R.V.W.G}$$$$V2.0) registered an IC50 in data set [1] of 18.5 µM. Further, in data set [2], the “β-Cat FP Hill slope” value came out at 0.8 and the Kd was less than 0.4 µM.
For the compound `CC[C@@H](C)[C@H]1NC(=O)[C@@H](CC(C)C)NC(=O)[C@@H](Cc2ccccc2)NC(=O)[C@H](Cc2c[nH]c3ccccc23)NC(=O)[C@@H](CCSC)NC(=O)CCCCCCCCCCCNC(=O)C[C@@H](C(=O)O)NC(=O)[C@H](Cc2c[nH]c3ccccc23)NC(=O)[C@@H](Cc2ccccc2)NC(=O)[C@H](CS)NC1=O` [compound 190] (HELM PEPTIDE1{[O=C(CCCCCCCCCCCN[*:1])[*:2]].[dM].W.[dF].[dL].[dI].C.[dF].W.D}$PEPTIDE1,PEPTIDE1,1:R1-10:R3$$$V2.0), the EC50 in data set [3] was less than 7.5 µM. The viability in data set [4] is 99.6%. In addition, in data set [2], the “β-Cat FP Hill slope” value came out at 1.92 and the equilibrium dissociation constant (Kd) lay in the range of 0.4 to 1 µM.
Compound `CC[C@H](C)[C@H]1NC(=O)[C@H](CC(C)C)NC(=O)[C@@H](Cc2ccccc2)NC(=O)[C@H](Cc2c[nH]c3ccccc23)NC(=O)[C@@H](CCSC)NC(=O)CCCCCCCCCCCNC(=O)C[C@@H](C(=O)O)NC(=O)[C@H](Cc2c[nH]c3ccccc23)NC(=O)[C@@H](C)NC(=O)[C@@H](CS)NC1=O` [compound 193] (HELM PEPTIDE1{[O=C(CCCCCCCCCCCN[*:1])[*:2]].[dM].W.[dF].L.[CC[C@H](C)[C@@H](N[*:1])C(=O)[*:2]].[dC].[dA].W.D}$PEPTIDE1,PEPTIDE1,1:R1-10:R3$$$V2.0) gave an EC50 in data set [3] of less than 7.5 µM. Further, in data set [4], the viability stood at 96.6%. Also, in data set [2], the “β-Cat FP Hill slope” value came out at 2.34 and the dissociation constant Kd is 0.4 to 1 µM.
On to `CC[C@H](C)C(NC(=O)[C@H](CC(C)C)NC(=O)C(NC(=O)[C@H](Cc1c[nH]c2ccccc12)NC(=O)[C@H](CCSC)NC(=O)C(C)(C)C)[C@@H](C)CC)C(=O)N[C@@H](CO)C(=O)N[C@@H](Cc1ccccc1)C(=O)N[C@@H](Cc1c[nH]c2ccccc12)C(=O)NCC(=O)O` (stereo partly drawn) [compound 224] (Piv-MW[ξIle]L[ξIle]SFWG-OH), for which the EC50 in data set [3] was less than 7.5 µM. Also, the viability in data set [4] came to 95.7%. Further, in data set [2], the “β-Cat FP Hill slope” value is 1.04 and the equilibrium dissociation constant (Kd) is less than 0.4 µM.
For the compound `CCCCCCCCCCCCCCCCCC(=O)N[C@@H](Cc1c[nH]c2ccccc12)C(=O)N(C)[C@@H](Cc1c[nH]c2ccccc12)C(=O)N[C@@H](CCC(=O)O)C(=O)NC(C)(CO)C(=O)N[C@H](C(=O)N[C@@H](CC(C)C)C(=O)N[C@@H](CC(=O)O)C(=O)N[C@@H](CCC(=O)O)C(=O)N[C@@H](Cc1c[nH]cn1)C(=O)NC(C)(C(=O)N[C@@H](CCC(N)=O)C(=O)N[C@@H](CCCNC(=N)N)C(=O)N[C@H](C(=O)N[C@@H](Cc1c[nH]c2ccccc12)C(=O)NCC(=O)O)C(C)C)C(C)C)[C@@H](C)CC` (stereo partly drawn) [compound 390] (Stearoyl-W[NMeW]E[ξαMeS]ILDEH[ξαMeV]QRVWG-OH), the EC50 in data set [3] lay within 7.5 to 15 µM. Also, the half-inhibitory concentration (IC50) in data set [1] is 4.7 µM.
Taken in the same sequence, the figures for `CCCCCCCCCCCCCCCCCC(=O)NCCC(=O)N[C@@H](Cc1c[nH]c2ccccc12)C(=O)N(C)[C@@H](Cc1c[nH]c2ccccc12)C(=O)N[C@@H](CCC(=O)O)C(=O)NC(C)(CO)C(=O)N[C@H](C(=O)N[C@@H](CC(C)C)C(=O)N[C@@H](CC(=O)O)C(=O)N[C@@H](CCC(=O)O)C(=O)N[C@@H](Cc1c[nH]cn1)C(=O)NC(C)(C(=O)N[C@@H](CCC(N)=O)C(=O)N[C@@H](CCCNC(=N)N)C(=O)N[C@H](C(=O)N[C@@H](Cc1c[nH]c2ccccc12)C(=O)NCC(=O)O)C(C)C)C(C)C)[C@@H](C)CC` (stereo partly drawn) [compound 391] ({Stearoyl-βAla}-W[NMeW]E[ξαMeS]ILDEH[ξαMeV]QRVWG-OH) were less than 7.5 µM and 4.8 µM.
Take `CCCCCCCCCCCCCCCCCC(=O)NCCCC(=O)N[C@@H](Cc1c[nH]c2ccccc12)C(=O)N(C)[C@@H](Cc1c[nH]c2ccccc12)C(=O)N[C@@H](CCC(=O)O)C(=O)NC(C)(CO)C(=O)N[C@H](C(=O)N[C@@H](CC(C)C)C(=O)N[C@@H](CC(=O)O)C(=O)N[C@@H](CCC(=O)O)C(=O)N[C@@H](Cc1c[nH]cn1)C(=O)NC(C)(C(=O)N[C@@H](CCC(N)=O)C(=O)N[C@@H](CCCNC(=N)N)C(=O)N[C@H](C(=O)N[C@@H](Cc1c[nH]c2ccccc12)C(=O)O)C(C)C)C(C)C)[C@@H](C)CC` (stereo partly drawn) [compound 395] ({Stearoyl-GABA}-W[NMeW]E[ξαMeS]ILDEH[ξαMeV]QRVW-OH): in data set [3], the concentration for a half-maximal effect (EC50) was 7.5 to 15 µM. For the same compound, the IC50 in data set [1] was found to be 6.8 µM.
The compound `CC[C@H](C)[C@@H]1NC(=O)[C@@H](NC(=O)[C@H](CCC(N)=O)NC(=O)[C@H](C)N(C)C(=O)[C@H](Cc2c[nH]c3ccccc23)NC(=O)CCC(=O)O)CCCCNC(=O)CC[C@@H](C(=O)N[C@@H](Cc2c[nH]cn2)C(=O)N[C@H](C(=O)N[C@@H](CCC(N)=O)C(=O)N[C@@H](CCCNC(=N)N)C(=O)N[C@H](C(=O)N[C@@H](Cc2c[nH]c3ccccc23)C(=O)NCC(N)=O)C(C)C)C2CCCCC2)NC(=O)[C@H](CC(=O)O)NC(=O)[C@H](CC(C)C)NC1=O` [compound 405] (HELM PEPTIDE1{[O=C(O)CCC(=O)[*:2]].W.[meA].Q.K.I.L.D.E.H.[O=C([C@@H](N[*:1])C1CCCCC1)[*:2]].Q.R.V.W.G.[am]}$PEPTIDE1,PEPTIDE1,5:R3-9:R3$$$V2.0) returned an EC50 in data set [3] of 15 to 22.5 µM. In data set [1], the IC50 was 26.8 µM. Moreover, in data set [2], the “β-Cat FP Hill slope” value is recorded as 0.7 and the equilibrium dissociation constant (Kd) is less than 0.4 µM.
